SMILES strings stand for the structures.

The values below come from ChEMBL document CHEMBL1142802, “L-arginine analogs as alternate substrates for nitric oxide synthase” (Bioorg Med Chem Lett, 2005).

The assay concerns the target Nitric oxide synthase, inducible (Homo sapiens, UniProt P35228). In words: Binding affinity towards inducible nitric oxide synthase.

Chain of Nitric oxide synthase, inducible (P35228 whole entry): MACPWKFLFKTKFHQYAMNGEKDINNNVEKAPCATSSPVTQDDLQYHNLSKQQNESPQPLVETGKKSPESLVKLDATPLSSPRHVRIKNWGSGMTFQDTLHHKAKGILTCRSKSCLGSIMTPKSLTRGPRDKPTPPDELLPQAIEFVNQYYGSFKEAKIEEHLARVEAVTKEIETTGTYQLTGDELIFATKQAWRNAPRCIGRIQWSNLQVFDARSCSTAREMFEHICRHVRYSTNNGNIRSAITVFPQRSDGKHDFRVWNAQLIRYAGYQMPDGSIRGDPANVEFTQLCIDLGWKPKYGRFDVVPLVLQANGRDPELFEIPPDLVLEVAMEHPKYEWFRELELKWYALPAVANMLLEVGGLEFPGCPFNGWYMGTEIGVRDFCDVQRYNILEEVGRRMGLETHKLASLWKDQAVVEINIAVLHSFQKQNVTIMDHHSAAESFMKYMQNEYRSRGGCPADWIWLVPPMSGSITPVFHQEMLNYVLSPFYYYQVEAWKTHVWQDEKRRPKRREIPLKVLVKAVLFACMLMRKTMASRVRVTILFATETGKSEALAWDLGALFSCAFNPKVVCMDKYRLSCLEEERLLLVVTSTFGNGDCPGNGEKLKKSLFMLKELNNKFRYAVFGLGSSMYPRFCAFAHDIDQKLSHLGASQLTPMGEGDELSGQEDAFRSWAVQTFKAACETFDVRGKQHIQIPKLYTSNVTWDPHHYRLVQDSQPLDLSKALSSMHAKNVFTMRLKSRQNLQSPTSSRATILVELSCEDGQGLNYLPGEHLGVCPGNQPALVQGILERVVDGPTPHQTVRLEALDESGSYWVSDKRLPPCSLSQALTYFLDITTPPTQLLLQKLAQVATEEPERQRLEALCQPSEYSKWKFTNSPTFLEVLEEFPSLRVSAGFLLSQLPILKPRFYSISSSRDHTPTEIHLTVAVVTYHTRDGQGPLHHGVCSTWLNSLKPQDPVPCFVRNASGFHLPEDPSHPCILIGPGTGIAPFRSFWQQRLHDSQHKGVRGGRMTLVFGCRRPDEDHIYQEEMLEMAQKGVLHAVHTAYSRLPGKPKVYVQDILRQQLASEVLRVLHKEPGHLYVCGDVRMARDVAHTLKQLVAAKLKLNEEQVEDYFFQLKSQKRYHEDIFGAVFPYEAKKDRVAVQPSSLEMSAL

The compound `N=C(N)CCCCC(N)C(=O)O` (configuration not stated) showed a Ki of over 3000 µM. Then `N=C(N)NOCC[C@H](N)C(=O)O` [CANAVANINE], with 220 µM.
